Measurements as given in paper PMC11345841, “Exploring 2-Sulfonylpyrimidine Warheads as Acrylamide Surrogates for Targeted Covalent Inhibition: A BTK Story” (Journal of Medicinal Chemistry, 2024).
Read-outs that look alike come from different tables or passages of the source.

Assays:
Assay in all cases: KINOMEscan ScanTK
Assay type in all cases: binding
[1] = target: T1, ERBB4 (Homo sapiens, UniProt Q15303)
T1 construct: purchased Eurofins DiscoverX KINOMEscan (scanTK)

[2] = target: T2, FGFR3 (Homo sapiens, UniProt P22607)
T2 construct: purchased Eurofins DiscoverX KINOMEscan (scanTK)
T2 sequence (P22607 23-806): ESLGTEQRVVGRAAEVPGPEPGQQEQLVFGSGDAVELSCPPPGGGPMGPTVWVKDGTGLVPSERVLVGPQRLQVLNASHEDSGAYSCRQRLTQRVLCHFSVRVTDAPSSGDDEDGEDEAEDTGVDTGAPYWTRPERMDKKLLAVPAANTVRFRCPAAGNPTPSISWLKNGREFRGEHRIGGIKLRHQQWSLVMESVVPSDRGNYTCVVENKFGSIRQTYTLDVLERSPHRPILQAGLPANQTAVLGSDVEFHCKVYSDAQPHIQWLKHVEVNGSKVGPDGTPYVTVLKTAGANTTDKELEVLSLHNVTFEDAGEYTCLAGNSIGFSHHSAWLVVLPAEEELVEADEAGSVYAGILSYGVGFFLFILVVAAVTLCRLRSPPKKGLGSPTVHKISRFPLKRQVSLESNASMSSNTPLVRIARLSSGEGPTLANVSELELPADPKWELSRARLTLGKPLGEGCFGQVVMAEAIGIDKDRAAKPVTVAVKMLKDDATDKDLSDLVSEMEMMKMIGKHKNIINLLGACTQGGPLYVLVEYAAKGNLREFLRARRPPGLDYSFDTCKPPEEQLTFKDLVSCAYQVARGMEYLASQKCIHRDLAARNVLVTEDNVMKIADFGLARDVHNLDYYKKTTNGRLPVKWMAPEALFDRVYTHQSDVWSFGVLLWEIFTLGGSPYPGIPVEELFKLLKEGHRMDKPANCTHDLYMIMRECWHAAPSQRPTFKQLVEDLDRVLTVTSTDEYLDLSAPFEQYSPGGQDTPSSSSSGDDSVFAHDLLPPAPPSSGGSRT

[3] = target: T3, FLT1 (Homo sapiens, UniProt P17948)
T3 construct: purchased Eurofins DiscoverX KINOMEscan (scanTK)
T3 sequence (P17948 27-1338): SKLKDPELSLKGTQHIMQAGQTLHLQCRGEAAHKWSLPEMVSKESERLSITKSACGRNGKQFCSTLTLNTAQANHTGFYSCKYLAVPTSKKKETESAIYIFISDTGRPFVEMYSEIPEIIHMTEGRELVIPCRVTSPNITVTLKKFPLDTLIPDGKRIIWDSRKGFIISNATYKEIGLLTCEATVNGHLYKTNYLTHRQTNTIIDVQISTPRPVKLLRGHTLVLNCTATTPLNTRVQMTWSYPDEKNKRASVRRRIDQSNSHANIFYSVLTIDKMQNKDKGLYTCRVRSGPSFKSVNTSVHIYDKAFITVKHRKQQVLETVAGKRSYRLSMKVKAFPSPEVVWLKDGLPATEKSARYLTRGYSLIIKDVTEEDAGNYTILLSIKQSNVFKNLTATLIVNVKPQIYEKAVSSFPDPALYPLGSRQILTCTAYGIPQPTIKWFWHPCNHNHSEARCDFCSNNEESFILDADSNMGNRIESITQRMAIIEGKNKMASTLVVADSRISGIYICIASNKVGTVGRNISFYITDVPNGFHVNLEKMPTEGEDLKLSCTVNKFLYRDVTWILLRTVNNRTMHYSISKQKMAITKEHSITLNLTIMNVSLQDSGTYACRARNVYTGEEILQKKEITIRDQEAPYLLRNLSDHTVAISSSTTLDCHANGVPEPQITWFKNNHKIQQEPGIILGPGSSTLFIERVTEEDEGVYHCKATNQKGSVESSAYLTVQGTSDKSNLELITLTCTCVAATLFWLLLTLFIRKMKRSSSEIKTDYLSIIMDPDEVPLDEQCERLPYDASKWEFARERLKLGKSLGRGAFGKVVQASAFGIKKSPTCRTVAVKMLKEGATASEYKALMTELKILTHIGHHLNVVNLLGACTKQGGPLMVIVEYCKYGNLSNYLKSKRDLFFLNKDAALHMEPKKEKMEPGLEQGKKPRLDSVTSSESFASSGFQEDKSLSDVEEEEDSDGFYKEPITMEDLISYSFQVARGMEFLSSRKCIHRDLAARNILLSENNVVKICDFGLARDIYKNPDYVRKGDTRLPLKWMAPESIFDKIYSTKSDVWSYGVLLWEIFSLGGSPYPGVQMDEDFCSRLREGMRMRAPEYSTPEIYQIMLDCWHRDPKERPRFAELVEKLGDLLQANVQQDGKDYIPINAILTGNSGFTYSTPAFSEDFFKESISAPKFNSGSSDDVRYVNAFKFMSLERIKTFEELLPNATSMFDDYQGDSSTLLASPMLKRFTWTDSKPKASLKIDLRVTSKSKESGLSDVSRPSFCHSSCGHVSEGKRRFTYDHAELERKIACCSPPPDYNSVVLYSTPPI

[4] = target: T4, FGFR4 (Homo sapiens, UniProt P22455)
T4 construct: purchased Eurofins DiscoverX KINOMEscan (scanTK)

[5] = target: T5, FGFR3(G697C) (Homo sapiens, UniProt P22607, G697C)
T5 construct: purchased Eurofins DiscoverX KINOMEscan (scanTK)
T5 sequence (P22607 23-806 G697C): as the sequence (P22607 23-806) above, with G675C counted along it

[6] = target: T6, JAK1(JH2domain-pseudokinase) (Homo sapiens, UniProt P23458)
T6 construct: JAK1(JH2domain-pseudokinase); purchased Eurofins DiscoverX KINOMEscan (scanTK)

[7] = target: T7, ABL1(Y253F)-phosphorylated (Homo sapiens, UniProt P00519, Y253F)
T7 construct: purchased Eurofins DiscoverX KINOMEscan (scanTK)

[8] = target: T8, EPHA8 (Homo sapiens, UniProt P29322)
T8 construct: purchased Eurofins DiscoverX KINOMEscan (scanTK)
T8 sequence (P29322 28-1005): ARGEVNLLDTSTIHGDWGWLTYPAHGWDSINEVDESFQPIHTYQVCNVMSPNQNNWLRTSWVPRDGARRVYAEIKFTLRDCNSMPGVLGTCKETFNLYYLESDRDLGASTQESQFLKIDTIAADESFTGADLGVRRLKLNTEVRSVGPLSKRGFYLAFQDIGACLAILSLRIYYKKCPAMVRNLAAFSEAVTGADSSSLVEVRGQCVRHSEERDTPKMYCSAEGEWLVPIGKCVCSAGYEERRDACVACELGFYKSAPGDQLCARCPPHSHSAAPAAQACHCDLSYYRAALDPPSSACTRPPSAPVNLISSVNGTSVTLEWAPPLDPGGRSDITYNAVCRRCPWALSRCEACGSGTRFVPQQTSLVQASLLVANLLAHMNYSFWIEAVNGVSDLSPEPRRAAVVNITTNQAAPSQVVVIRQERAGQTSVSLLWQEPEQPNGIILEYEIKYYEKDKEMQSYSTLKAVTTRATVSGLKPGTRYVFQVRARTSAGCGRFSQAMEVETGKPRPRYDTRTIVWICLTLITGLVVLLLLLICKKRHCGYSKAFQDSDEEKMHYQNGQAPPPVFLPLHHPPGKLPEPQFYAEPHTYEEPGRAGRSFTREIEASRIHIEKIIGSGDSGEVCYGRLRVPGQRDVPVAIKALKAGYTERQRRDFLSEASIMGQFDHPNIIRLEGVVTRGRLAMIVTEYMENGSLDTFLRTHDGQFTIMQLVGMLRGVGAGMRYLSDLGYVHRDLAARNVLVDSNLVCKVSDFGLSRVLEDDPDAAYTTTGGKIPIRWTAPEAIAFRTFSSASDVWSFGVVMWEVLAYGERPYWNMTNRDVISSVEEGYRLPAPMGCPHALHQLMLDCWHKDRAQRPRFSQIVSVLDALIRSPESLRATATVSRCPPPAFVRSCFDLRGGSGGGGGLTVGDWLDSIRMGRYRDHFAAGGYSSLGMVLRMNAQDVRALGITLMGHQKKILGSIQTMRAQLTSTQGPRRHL

[9] = target: T9, FLT3(K663Q) (Homo sapiens, UniProt P36888, K663Q)
T9 construct: purchased Eurofins DiscoverX KINOMEscan (scanTK)
T9 sequence (P36888 27-993 K663Q): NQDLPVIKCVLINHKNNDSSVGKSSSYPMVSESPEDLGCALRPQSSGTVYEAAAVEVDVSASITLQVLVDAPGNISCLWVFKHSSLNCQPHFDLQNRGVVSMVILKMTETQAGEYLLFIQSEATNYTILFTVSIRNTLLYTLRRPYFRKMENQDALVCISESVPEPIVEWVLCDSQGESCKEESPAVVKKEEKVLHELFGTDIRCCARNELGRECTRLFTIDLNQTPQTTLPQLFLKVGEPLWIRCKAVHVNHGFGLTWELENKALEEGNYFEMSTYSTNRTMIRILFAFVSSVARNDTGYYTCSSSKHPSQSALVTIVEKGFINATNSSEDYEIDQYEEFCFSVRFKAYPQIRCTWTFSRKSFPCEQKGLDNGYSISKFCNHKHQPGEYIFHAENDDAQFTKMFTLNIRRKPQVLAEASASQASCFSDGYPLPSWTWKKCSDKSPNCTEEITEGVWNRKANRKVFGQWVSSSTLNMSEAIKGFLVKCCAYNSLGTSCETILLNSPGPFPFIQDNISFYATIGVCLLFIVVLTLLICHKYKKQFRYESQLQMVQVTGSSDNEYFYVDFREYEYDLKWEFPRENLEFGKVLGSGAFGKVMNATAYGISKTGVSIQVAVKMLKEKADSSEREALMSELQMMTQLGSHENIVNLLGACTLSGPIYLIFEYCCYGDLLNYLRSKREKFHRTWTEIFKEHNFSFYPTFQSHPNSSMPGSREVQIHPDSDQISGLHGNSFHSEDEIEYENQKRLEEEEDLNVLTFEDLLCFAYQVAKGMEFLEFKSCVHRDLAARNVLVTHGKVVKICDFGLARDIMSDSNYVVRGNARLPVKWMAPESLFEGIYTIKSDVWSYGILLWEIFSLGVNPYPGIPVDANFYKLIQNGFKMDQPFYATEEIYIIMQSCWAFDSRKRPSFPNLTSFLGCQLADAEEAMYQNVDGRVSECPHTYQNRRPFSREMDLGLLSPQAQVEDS

[10] = target: T10, ERBB3 (Homo sapiens, UniProt P21860); settings: for remaining binding at 1 µM / % of control difference from compound Ib at 1 µM: ERBB3
T10 construct: purchased Eurofins DiscoverX KINOMEscan (scanTK)
T10 sequence (P21860 20-1342): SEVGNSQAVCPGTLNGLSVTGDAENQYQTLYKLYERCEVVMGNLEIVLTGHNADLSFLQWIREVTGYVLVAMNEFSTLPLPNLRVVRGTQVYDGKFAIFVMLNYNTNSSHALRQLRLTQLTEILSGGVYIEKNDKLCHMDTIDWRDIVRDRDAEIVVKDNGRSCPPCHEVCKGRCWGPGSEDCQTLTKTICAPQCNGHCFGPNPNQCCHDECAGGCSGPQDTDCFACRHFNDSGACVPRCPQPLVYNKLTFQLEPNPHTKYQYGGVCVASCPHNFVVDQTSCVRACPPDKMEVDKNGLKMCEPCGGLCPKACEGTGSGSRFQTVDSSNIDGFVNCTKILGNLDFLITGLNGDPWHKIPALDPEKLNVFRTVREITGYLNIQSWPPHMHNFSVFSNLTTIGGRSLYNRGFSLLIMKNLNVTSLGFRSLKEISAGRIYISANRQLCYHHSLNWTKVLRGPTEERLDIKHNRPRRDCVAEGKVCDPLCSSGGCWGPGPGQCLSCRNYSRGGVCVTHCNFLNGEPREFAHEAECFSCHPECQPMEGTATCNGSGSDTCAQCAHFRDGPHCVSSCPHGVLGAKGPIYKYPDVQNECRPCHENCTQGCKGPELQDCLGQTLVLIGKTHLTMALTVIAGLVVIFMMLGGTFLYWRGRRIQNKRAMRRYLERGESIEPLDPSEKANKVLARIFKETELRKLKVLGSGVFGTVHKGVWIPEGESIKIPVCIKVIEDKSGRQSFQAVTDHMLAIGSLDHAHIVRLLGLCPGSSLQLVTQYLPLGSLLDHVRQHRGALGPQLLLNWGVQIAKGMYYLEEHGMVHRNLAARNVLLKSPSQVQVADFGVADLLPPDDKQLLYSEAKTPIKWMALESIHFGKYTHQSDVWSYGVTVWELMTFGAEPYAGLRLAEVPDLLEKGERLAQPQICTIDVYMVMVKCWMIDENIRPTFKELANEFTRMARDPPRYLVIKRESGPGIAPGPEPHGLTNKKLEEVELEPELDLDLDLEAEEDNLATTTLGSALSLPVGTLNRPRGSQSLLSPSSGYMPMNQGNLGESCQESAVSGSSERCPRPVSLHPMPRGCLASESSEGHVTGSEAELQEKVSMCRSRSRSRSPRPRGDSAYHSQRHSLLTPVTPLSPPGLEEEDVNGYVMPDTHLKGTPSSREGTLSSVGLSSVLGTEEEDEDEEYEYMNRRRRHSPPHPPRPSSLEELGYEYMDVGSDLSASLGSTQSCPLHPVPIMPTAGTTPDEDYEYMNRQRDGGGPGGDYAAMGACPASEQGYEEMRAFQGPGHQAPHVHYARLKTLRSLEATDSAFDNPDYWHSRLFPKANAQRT

[11] = target: T11, EGFR(L747-S752del, P753S) (Homo sapiens, UniProt P00533, DEL747-752/P753S)
T11 construct: purchased Eurofins DiscoverX KINOMEscan (scanTK)
T11 sequence (P00533 with tags, fused parts or gaps DEL747-752/P753S limits assumed): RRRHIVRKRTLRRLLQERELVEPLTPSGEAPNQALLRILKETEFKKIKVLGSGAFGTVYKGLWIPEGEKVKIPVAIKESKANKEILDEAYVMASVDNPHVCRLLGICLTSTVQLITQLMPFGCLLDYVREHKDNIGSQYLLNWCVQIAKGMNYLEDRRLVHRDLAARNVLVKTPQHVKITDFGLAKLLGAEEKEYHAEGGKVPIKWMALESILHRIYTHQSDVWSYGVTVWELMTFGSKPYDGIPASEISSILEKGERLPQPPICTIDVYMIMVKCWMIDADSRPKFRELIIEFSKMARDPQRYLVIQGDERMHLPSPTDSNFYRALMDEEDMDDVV

T1 sequence (Q15303 26-1308): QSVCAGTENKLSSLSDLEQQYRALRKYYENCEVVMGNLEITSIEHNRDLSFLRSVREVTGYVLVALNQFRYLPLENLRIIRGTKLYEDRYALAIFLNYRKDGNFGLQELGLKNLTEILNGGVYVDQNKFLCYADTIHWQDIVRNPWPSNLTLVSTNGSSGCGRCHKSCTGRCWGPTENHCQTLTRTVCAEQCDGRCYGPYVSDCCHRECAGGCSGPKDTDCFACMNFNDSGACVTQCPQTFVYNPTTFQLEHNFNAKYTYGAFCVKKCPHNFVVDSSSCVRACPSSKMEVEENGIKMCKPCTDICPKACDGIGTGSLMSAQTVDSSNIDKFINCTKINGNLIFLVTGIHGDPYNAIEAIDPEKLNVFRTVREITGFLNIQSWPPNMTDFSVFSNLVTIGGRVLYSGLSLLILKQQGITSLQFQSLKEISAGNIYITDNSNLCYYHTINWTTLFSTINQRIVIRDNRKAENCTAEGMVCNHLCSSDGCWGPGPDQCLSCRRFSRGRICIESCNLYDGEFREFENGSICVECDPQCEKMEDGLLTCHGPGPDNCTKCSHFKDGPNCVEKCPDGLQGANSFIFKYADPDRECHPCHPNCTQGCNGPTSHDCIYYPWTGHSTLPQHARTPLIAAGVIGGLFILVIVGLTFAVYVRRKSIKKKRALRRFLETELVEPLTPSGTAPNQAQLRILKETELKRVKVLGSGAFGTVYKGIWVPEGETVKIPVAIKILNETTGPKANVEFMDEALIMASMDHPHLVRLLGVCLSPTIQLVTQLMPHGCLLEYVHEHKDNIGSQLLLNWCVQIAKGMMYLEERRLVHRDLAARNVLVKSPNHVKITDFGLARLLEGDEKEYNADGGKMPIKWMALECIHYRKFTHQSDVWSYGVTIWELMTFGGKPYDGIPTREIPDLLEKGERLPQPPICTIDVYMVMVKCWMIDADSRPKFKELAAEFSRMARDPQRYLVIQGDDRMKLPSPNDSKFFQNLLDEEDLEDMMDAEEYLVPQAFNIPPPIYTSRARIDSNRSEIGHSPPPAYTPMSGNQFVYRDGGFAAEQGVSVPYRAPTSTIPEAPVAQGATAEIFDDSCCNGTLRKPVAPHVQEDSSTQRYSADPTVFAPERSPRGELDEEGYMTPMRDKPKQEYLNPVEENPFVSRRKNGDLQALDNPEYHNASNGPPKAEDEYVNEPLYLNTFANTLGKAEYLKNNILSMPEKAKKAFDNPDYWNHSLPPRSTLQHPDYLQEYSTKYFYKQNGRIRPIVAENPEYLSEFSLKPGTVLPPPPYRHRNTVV

| Structure (SMILES) | remaining binding at 1 µM ([1]; @1000nM, read-out: %Control) [%] | remaining binding at 1 µM ([1]; read-out: %Control @1000nM) [%] | remaining binding at 1 µM ([2]; @1000nM, read-out: %Control) [%] | remaining binding at 1 µM ([2]; read-out: %Control @1000nM) [%] | remaining binding at 1 µM ([3]; @1000nM, read-out: %Control) [%] | remaining binding at 1 µM ([3]; read-out: %Control @1000nM) [%] | remaining binding at 1 µM ([4]; @1000nM, read-out: %Control) [%] | remaining binding at 1 µM ([4]; read-out: %Control @1000nM) [%] | remaining binding at 1 µM ([5]; @1000nM, read-out: %Control) [%] | remaining binding at 1 µM ([5]; read-out: %Control @1000nM) [%] | remaining binding at 1 µM ([6]; @1000nM, read-out: %Control) [%] | remaining binding at 1 µM ([6]; read-out: %Control @1000nM) [%] | remaining binding at 1 µM ([7]; @1000nM, read-out: %Control) [%] | remaining binding at 1 µM ([7]; read-out: %Control @1000nM) [%] | remaining binding at 1 µM ([8]; @1000nM, read-out: %Control) [%] | remaining binding at 1 µM ([8]; read-out: %Control @1000nM) [%] | remaining binding at 1 µM ([9]; @1000nM, read-out: %Control) [%] | remaining binding at 1 µM ([9]; read-out: %Control @1000nM) [%] | remaining binding at 1 µM ([10]; @1000nM, read-out: %Control) [%] | remaining binding at 1 µM ([10]; read-out: %Control @1000nM) [%] | further results |
| --- | --- | --- | --- | --- | --- | --- | --- | --- | --- | --- | --- | --- | --- | --- | --- | --- | --- | --- | --- | --- | --- |
| C=CC(=O)N1CCC[C@@H](n2nc(-c3ccc(Oc4ccccc4)cc3)c3c(N)ncnc32)C1 [Compound 1g, Ibrutinib, reference compound] | 0.05 | 0.05 | 48 | 48 | 72 | 72 | 96 | 96 | 40 | 40 | 95 | 95 | 77 | 77 | 69 | 69 | 44 | 44 | 0 | 0 | inhibition at 1 µM ([10]; read-out: % inhibition, ERBB3): > 99% |
| Cc1cnc(S(C)(=O)=O)nc1N1CCCC(n2nc(-c3ccc(Oc4ccccc4)cc3)c3c(N)ncnc32)C1 (stereo not drawn) [Compound 8a, 1-(1-(5-Methyl-2-(methylsulfonyl)pyrimidin-4-yl)piperidin-3-yl)-3-(4-phenoxyphenyl)-1H-pyrazolo[3,4-d]pyrimidin-4-amine] | 64 | 64 | 92 | 92 | 93 | 93 | 97 | 97 | 97 | 97 | 100 | 100 | 83 | 83 | 82 | 82 | 58 | 58 | 0 | 0 | difference in %Control versus compound Ib at 1 µM ([1]; @1000nM): 64%; difference in %Control versus compound Ib at 1 µM ([2]; @1000nM): 44%; difference in %Control from compound Ib at 1 µM ([3]; @1000nM): 21%; difference in %Control from compound Ib at 1 µM ([4]; @1000nM): 1%; difference in %Control versus compound Ib at 1 µM ([5]; @1000nM): 57%; %Control difference versus compound Ib at 1 µM ([6]; @1000nM): 5%; difference in %Control from compound Ib at 1 µM ([7]; @1000nM): 6%; difference in %Control versus compound Ib at 1 µM ([8]; @1000nM): 13%; difference in %Control from compound Ib at 1 µM ([9]; @1000nM): 14%; difference in %Control versus compound Ib at 1 µM ([11]; @1000nM): 88.5%; remaining binding at 1 µM ([11]; @1000nM, read-out: %Control): 94%; remaining binding at 1 µM ([11]; read-out: %Control @1000nM): 94%; % of control difference from compound Ib at 1 µM ([10]; @1000nM): 0% |
| COC(=O)c1cnc(S(C)(=O)=O)nc1N1CCCC(n2nc(-c3ccc(Oc4ccccc4)cc3)c3c(N)ncnc32)C1 (stereo not drawn) [Compound 8b, Methyl 4-(3-(4-Amino-3-(4-phenoxyphenyl)-1H-pyrazolo[3,4-d]pyrimidin-1-yl)piperidin-1-yl)-2-(methylsulfonyl)pyrimidine-5-carboxylate] | 0.55 | 0.55 | 95 | 95 | 98 | 98 | 92 | 92 | 84 | 84 | 99 | 99 | 78 | 78 | 77 | 77 | 73 | 73 | 2.3 | 2.3 | difference in %Control versus compound Ib at 1 µM ([1]; @1000nM): 0.5%; difference in %Control versus compound Ib at 1 µM ([2]; @1000nM): 47%; difference in %Control from compound Ib at 1 µM ([3]; @1000nM): 26%; difference in %Control from compound Ib at 1 µM ([4]; @1000nM): -4%; difference in %Control versus compound Ib at 1 µM ([5]; @1000nM): 44%; %Control difference versus compound Ib at 1 µM ([6]; @1000nM): 4%; difference in %Control from compound Ib at 1 µM ([7]; @1000nM): 1%; difference in %Control versus compound Ib at 1 µM ([8]; @1000nM): 8%; difference in %Control from compound Ib at 1 µM ([9]; @1000nM): 29%; difference in %Control versus compound Ib at 1 µM ([11]; @1000nM): 89.5%; remaining binding at 1 µM ([11]; @1000nM, read-out: %Control): 95%; remaining binding at 1 µM ([11]; read-out: %Control @1000nM): 95%; % of control difference from compound Ib at 1 µM ([10]; @1000nM): 2.3% |
